Patent US20110313156A1 (BOEHRINGER INGELHEIM INTERNATIONAL GMBH, priority 2008, published 2011)

biological target: T1, His6-PDK1 (aa 52-556) (Homo sapiens, UniProt O15530); test: PDK1 kinase assay III (with Tween 20); assay type: biochemical; conditions: compound at 10 μM; PDK1 kinase assay III (values without asterisk); read-out: % CTL (residual activity of the enzyme relative to DMSO control)
T1 construct: 15 μL His6-PDK1 (aa 52-556) 3.33 ng/well); host or cells: baculovirus-infected insect cells
T1 sequence (O15530 52-556): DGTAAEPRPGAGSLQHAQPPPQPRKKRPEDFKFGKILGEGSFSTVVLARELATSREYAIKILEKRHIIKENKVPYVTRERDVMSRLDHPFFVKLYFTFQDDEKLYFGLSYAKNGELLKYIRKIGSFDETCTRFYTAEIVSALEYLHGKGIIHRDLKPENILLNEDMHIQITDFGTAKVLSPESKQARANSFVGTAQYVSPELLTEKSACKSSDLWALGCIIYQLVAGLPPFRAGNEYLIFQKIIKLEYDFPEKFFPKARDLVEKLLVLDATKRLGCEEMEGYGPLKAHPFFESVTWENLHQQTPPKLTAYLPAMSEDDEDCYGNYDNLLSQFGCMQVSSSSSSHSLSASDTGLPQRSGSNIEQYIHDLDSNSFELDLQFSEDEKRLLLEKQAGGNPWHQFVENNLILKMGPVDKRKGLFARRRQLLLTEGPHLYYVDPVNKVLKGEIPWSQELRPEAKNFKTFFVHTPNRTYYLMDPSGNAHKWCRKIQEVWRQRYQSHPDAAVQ
Procedure: Purified enzyme may be obtained for example from the University of Dundee, Scotland.
Another PDK1 assay was developed which by comparison with PDK1 assay 1 additionally contains Tween 20:
The final concentration of Tween 20 is 0.005%.
The reaction is started by adding the ATP solution and the mixture is incubated for 90 min at ambient temperature; at the start of the reaction the dishes are shaken gently. The reaction is stopped by the addition of 50 μL/well of 500 mM phosphoric acid (H3PO4) and incubated for about 20 min at ambient temperature. […] The measured data are evaluated using Graphpad Prism software.
The % CTL values indicate the residual activity of the enzyme after the addition of the inhibitory compound in the solvent DMSO in relation to the enzyme activity in the solvent DMSO without the addition of a compound (control). The majority of the values were determined using the PDK1 kinase assay III described hereinbefore. The values marked with an asterisk (* or**) were determined using the PDK1 kinase assay II described hereinbefore (one asterisk→incubation for 24 h; two asterisks→incubation for 5 min)

| Structure (SMILES) | remaining activity at 10 µM |
| --- | --- |
| Cc1c(C(=O)NCC#Cc2ccc3nc(Nc4ccc(C(=O)NCCCO)cc4)ncc3c2)c(=O)n(Cc2ccc(F)c(F)c2)n1C | 15.2% |
| CNc1ncc2cc(C#CCNC(=O)c3c(C)n(C)n(Cc4ccc(F)c(F)c4)c3=O)ccc2n1 | 14.9% |
| O=C(NCc1ccc(Nc2ncnc3[nH]ccc23)cc1)c1cncn(Cc2ccc(F)c(F)c2)c1=O [IV-27, 1-(3,4-difluorobenzyl)-6-oxo-N-[4-(7H-pyrrolo[2,3-d]pyrimidin-4-ylamino)benzyl]-1,6-dihydropyrimidine-5-carboxamide] | 43.9% |
| CN1CCC(N(C)c2ccc(Nc3ncc4cc(C#CCNC(=O)c5nccn(Cc6ccc(F)c(F)c6)c5=O)ccc4n3)cc2)CC1 [III-34, 4-(3,4-difluorobenzyl)-N-{3-[2-({4-[methyl(1-methylpiperidin-4-yl)amino]phenyl}amino)quinazolin-6-yl]prop-2-yn-1-yl}-3-oxo-3,4-dihydropyrazine-2-carboxamide] | 10.7% |
| Cc1c(C(=O)NCC#Cc2ccc3nc(Nc4ccc(C(=O)NC5CCN(C6CC6)CC5)cc4)ncc3c2)c(=O)n(Cc2ccc(F)c(F)c2)n1C | 11.6% |
| CN1CCC(NC(=O)c2ccc(Nc3ncc4cc(/C=C/CNC(=O)c5cncn(Cc6ccc(F)c(F)c6)c5=O)ccc4n3)cc2Cl)CC1 | 22.4% |
| Cc1nc[nH]c1/C=C1\C(=O)Nc2cc(/C=C/CNC(=O)c3cncn(Cc4ccc(F)c(F)c4)c3=O)cc(F)c21 [I-47, 1-(3,4-difluorobenzyl)-N-[(2E)-3-{(3Z)-4-fluoro-3-[(4-methyl-1H-imidazol-5-yl)methylidene]-2-oxo-2,3-dihydro-1H-indol-6-yl}prop-2-en-1-yl]-6-oxo-1,6-dihydropyrimidine-5-carboxamide] | 17.2% |
| Cc1c(/C=C/CNC(=O)c2c(C)n(C)n(Cc3ccc(F)c(F)c3)c2=O)c(=O)n(C(C)C)c2nc(Nc3ccc(N4CCOCC4)cc3)ncc12 [IV-37, 2-(3,4-difluorobenzyl)-1,5-dimethyl-N-{(2E)-3-[5-methyl-2-{[4-(morpholin-4-yl)phenyl]amino}-7-oxo-8-(propane-2-yl)-7,8-dihydropyrido[2,3-c]pyrimidin-6-yl]prop-2-en-1-yl}-3-oxo-2,3-dihydro-1H-pyrazole-4-carboxamide] | 15.4% |
| Cc1c(C(=O)NCC#Cc2ccc3nc(Nc4ccc(N(C)C)cc4)ncc3c2)c(=O)n(Cc2ccc(F)c(F)c2)n1C | 14.3% |
| Cc1ncc(C(=O)NC/C=C/c2ccc3nc(Nc4ccc(CN(C)C)cc4)ncc3c2)c(=O)n1Cc1ccc(F)c(F)c1 | 13.8% |
| Cc1c(C(=O)NCC#Cc2ccc3nc(Nc4ccc(C(=O)N(C)CCCN(C)C)cc4)ncc3c2)c(=O)n(Cc2ccc(F)c(F)c2)n1C [III-90] | 13.3% |
| Cc1c(C(=O)NCC#Cc2ccc3nc(Nc4ccc(CN(C)C)cc4)ncc3c2)c(=O)n(Cc2ccc(F)c(F)c2)n1C [III-20, 2-(3,4-difluorobenzyl)-N-{3-[2-({4-[(dimethylamino)methyl]phenyl}amino)-quinazolin-6-yl]prop-2-yn-1-yl}-1,5-dimethyl-3-oxo-2,3-dihydro-1H-pyrazole-4-carboxamide] | 13.7% |
| NCc1[nH]cnc1/C=C1\C(=O)Nc2cc(/C=C/CNC(=O)c3cncn(Cc4ccc(F)c(F)c4)c3=O)ccc21 [I-49, N-{(2E)-3-[(3Z)-3-{[5-(aminomethyl)-1H-imidazol-4-yl]methylidene}-2-oxo-2,3-dihydro-1H-indol-6-yl]prop-2-en-1-yl}-1-(3,4-difluorobenzyl)-6-oxo-1,6-dihydropyrimidine-5-carboxamide] | 12.6% |
| Cc1c(C(=O)NCC#Cc2ccc3nc(Nc4ccc(C(=O)N(C)C5CCN(C)CC5)cc4)ncc3c2)c(=O)n(Cc2ccc(F)c(F)c2)n1C | 12.4% |
| CCN1CCC(NC(=O)c2ccc(Nc3ncc4cc(C#CCNC(=O)c5c(C)n(C)n(Cc6ccc(F)c(F)c6)c5=O)ccc4n3)cc2)CC1 | 13.7% |
